Assay results reported in patent publication US12038430B2, “Methods for high-content drug screening” (The Regents of the University of California, priority 2018, dated 2024).

System: human wildtype CFTR
Assay: Iodide transport / YFP quenching CFTR activation assay in FRT cells on micropillar array
Assay type: cell-based
Settings: 10 μM forskolin in alginate hydrogel, 10 min contact, FRT cells expressing human CFTR and YFP, versus neighboring area without forskolin
Procedure: FRT cells stably expressing human wildtype CFTR and yellow fluorescent protein YFP-H148/I152L were cultured on polyester transwell filters until they formed a tight monolayer (electrical resistance >3 kOhm·cm^2), as previously described in the art. The cell culture medium was then replaced with a viscous solution consisting of 2% methylcellulose (about 41,000 daltons, Sigma-Aldrich) in PBS. The cell layer was contacted with a 10×10 micropillar array for 10 min, and then the viscous solution was rinsed. For transport measurement, an iodide-containing solution (PBS with 120 mM chloride was replaced by iodide) was added manually on top of the cell layer. YFP fluorescence of the entire cell culture area was monitored for 5 min at 10 Hz using a 2× magnification lens (CFI Plan Apo Lambda 2X, Nikon, Melville, NY) with EMCCD camera detector (C9100, Hamamatsu). YFP fluorescence is reduced as the added extracellular iodide is transported into cell cytoplasm through activated CFTR. The time course of fluorescence for each of the 100 locations, each integrated over the 100-μm diameter circular cell area overlying the corresponding micropillar well, was determined using ImageJ. […]
CFTR function was determined from the kinetics of YFP fluorescence quenching following addition of an iodide-containing solution on the apical surface of the cell monolayer. […]

In the case of `C=C[C@@]1(C)CC(=O)[C@]2(O)[C@@]3(C)[C@@H](O)CCC(C)(C)[C@@H]3[C@H](O)[C@H](OC(C)=O)[C@@]2(C)O1` [Forskolin, forskolin], the “increase of initial curve slope of YFP fluorescence quenching (CFTR activation)” value is reported as “more than 14 fold”.
